Results filed as inconclusive are left out. Activity calls are given as the source filed them.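 Rule for the calls: active = red signal from normal-ribosome E. coli cut at least twice as much as green humanized-ribosome signal, growth cut under 30%; inconclusive = no clear call, values can overlap the other calls; inactive = the rest.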
How the values were obtained:
[1] = system: E. coli mixed culture (wild-type RFP + h34-humanized GFP), total OD600 growth, 24 h; experiment: selective ribosome h34 site antibacterial activity – h34 mutant GFP vs wild-type RFP, cherry-pick, OD600, dose response (AID 977625); conditions: E. coli h34-humanized GFP strain growth, fluorescence, 24 h; measured here: total culture OD600 growth
[2] = as above; conditions: E. coli h34-humanized GFP strain growth, fluorescence, 24 h; at 50 µM (top of the series)
[3] = system: E. coli h34-humanized GFP strain growth, fluorescence, 24 h; experiment: as above

Row | Structure (SMILES) | AC50 [1] | activity change, negative = inhibition [2] | AC50 [3]
1 | O=C(O)c1cc([N+](=O)[O-])ccc1NCc1ccccc1 | 20.1 µM | – | –
2 | COc1ccc(Cn2c(-c3ccc(Cl)cc3)c[n+]3ccccc23)cc1 | – | 30.2 (inactive) | –
3 | COc1ccc2[nH]c3c(=O)n(CCCCC(=O)NCCC(C)C)c(=S)[nH]c3c2c1 | – | -5.72 (inactive) | –
4 | Cc1ccc(S(=O)(=O)N2CC[C@H]3[C@H](CO)Nc4ccc(Br)cc4[C@H]32)cc1 | – | 7.09 (inactive) | –
5 | COc1cc2c(cc1[N+](=O)[O-])-c1ccc([N+](=O)[O-])cc1C2 | 0.378 µM | -48.1 (inactive) | –
6 | C[C@@H]1CCCCO[C@H](CN(C)C(=O)CCCN(C)C)[C@H](C)CN([C@@H](C)CO)C(=O)c2cc(NC(=O)Nc3cccc4ccccc34)ccc2O1 | > 100 µM | 21.7 (inactive) | –
7 | CCN(CC)CCn1c2ccccc2c2nc3ccc([N+](=O)[O-])cc3cc21 | 4.35 µM | – | 1.39 µM (inactive)
8 | CCn1c(-c2cc(-c3ccc(OC(C)C)cc3)nc3ccccc23)n[nH]c1=S | – | – | > 100 µM (inactive)
9 | Cc1ccc(C)c(NC(=O)CSc2nc3nc(-c4cccs4)cc(C(F)(F)F)c3c(=O)[nH]2)c1 | 36.2 µM | -48.2 (inactive) | –
10 | CCOC(=O)c1c(NC(=O)Cc2cccs2)sc(C)c1C | > 100 µM | 12.4 (inactive) | –
11 | COc1ccc(-n2cc(-c3ccccc3)c3c(N4CCOCC4)ncnc32)cc1 | 42.2 µM | – | > 100 µM (inactive)
12 | Cc1noc(C)c1NC(=O)Nc1ccc2c(c1)C(=O)N([C@H](C)CO)C[C@@H](C)[C@@H](CN(C)C(=O)Nc1ccc3c(c1)OCO3)OCCCC[C@@H](C)O2 | – | 0.093 (inactive) | –
13 | COc1cccc(C(=O)Nc2cc(C)nn2-c2ccccc2)c1OC | > 100 µM | 18.9 (inactive) | –
14 | CC1(Cc2ccccc2C#N)C(=O)Nc2cc(-c3ccccc3Cl)ccc21 (stereo unspecified) | 24.8 µM | – | –

Source: PubChem BioAssay AID977625 (Broad Institute, 2014)
